Read-outs that look alike come from different tables or passages of the source.
Molecular target: T1, TBK1 (Homo sapiens, UniProt Q9UHD2)
T1 sequence (Q9UHD2 1-729): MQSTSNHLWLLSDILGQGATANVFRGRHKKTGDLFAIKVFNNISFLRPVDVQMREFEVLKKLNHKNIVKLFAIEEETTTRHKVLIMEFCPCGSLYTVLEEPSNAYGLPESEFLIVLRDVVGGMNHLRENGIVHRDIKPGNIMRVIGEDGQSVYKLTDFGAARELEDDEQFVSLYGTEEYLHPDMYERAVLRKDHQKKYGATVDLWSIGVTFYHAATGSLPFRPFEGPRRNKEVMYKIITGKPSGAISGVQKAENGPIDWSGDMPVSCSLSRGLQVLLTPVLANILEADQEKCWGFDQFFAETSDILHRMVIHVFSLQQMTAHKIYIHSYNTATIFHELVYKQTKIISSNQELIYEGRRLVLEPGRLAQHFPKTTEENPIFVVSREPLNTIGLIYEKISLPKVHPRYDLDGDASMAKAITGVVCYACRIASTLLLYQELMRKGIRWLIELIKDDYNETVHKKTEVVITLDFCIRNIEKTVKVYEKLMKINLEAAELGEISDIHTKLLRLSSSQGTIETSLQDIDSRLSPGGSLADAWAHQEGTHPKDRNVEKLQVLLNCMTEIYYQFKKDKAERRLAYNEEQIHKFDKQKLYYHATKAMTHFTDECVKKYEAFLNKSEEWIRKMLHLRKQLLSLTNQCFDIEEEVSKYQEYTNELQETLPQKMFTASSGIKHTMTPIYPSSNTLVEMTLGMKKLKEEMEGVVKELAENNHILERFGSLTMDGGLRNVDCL
Experiment: FRET-based Z'-LYTE TBK1 enzymatic assay
Type: biochemical
Set-up: purchased Thermo Scientific A31513
Conditions: for inhibition at 0.1 µM / inhibition at 1 µM / inhibition at 10 µM / inhibition at 0.01 µM / inhibition at 0.0001 µM / inhibition at 0.001 µM / IC50: 100 µM ATP; for inhibition at 0.0001 µM: compound at 0.1 nM, read-out: TBK1 inhibition (%) 0.1 nM; for inhibition at 0.001 µM: compound at 1 nM, read-out: TBK1 inhibition (%) 1 nM; for IC50: mean of two separate experiments

[1] = read-out: TBK1 inhibition (%) 100 nM, compound at 100 nM
[2] = read-out: TBK1 inhibition (%) 1 μM, compound at 1 μM
[3] = read-out: TBK1 inhibition (%) 10 μM, compound at 10 μM
[4] = read-out: TBK1 inhibition (%) 10 nM, compound at 10 nM
[5] = compound at 10 nM, read-out: TBK1 inhibition (%) 10 nM
[6] = compound at 100 nM, read-out: TBK1 inhibition (%) 100 nM
[7] = compound at 1 μM, read-out: TBK1 inhibition (%) 1 μM
[8] = compound at 10 μM, read-out: TBK1 inhibition (%) 10 μM

SMILES | inhibition at 0.1 µM [1] [%] | inhibition at 1 µM [2] [%] | inhibition at 10 µM [3] [%] | inhibition at 0.01 µM [5] [%] | inhibition at 0.1 µM [6] [%] | inhibition at 1 µM [7] [%] | IC50 [nM] | further results
CN1CCN(Cc2ccc(-c3cnc4[nH]nc(NCc5ccccc5)c4c3)cc2)CC1 [Compound 12a] | -14.5 | -13.6 | -8 |  |  |  |  | 
CN1CCN(Cc2ccc(-c3cnc4[nH]nc(NCCc5ccccc5)c4c3)cc2)CC1 [Compound 12b] | 7.3 | 5.9 | 3.2 |  |  |  |  | 
CN1CCN(Cc2ccc(-c3cnc4[nH]nc(NCc5ccc(Cl)cc5Cl)c4c3)cc2)CC1 [Compound 12c] | -30.1 | -6.7 | -2 |  |  |  |  | 
CN1CCN(Cc2ccc(-c3cnc4[nH]nc(NCCCc5ccccc5)c4c3)cc2)CC1 [Compound 12d] | -5.6 | -5.8 | -4.7 |  |  |  |  | 
CN1CCN(Cc2ccc(-c3cnc4[nH]nc(NCCc5ccc(F)cc5)c4c3)cc2)CC1 [Compound 12e] | -1.4 | -2.4 | -5 |  |  |  |  | 
COc1ccc(CCNc2n[nH]c3ncc(-c4ccc(CN5CCN(C)CC5)cc4)cc23)cc1 [Compound 12f] | -9.7 | -7.9 | -0.5 |  |  |  |  | 
CN1CCN(Cc2ccc(-c3cnc4[nH]nc(NCCCN5CCOCC5)c4c3)cc2)CC1 [Compound 12h] | -7.8 | -4.3 | -5.2 |  |  |  |  | 
CN1CCN(Cc2ccc(-c3cnc4[nH]nc(NCCCn5ccnc5)c4c3)cc2)CC1 [Compound 12i] | 15.2 | 19.9 | 7.1 |  |  |  |  | inhibition at 0.01 µM [4]: 16.2%
CN1CCN(Cc2ccc(-c3cnc4[nH]nc(-c5ccc6[nH]ccc6c5)c4c3)cc2)CC1 [Compound 15a] | 13.2 | 36.5 | 83 |  |  |  |  | 
CC(C)n1c(C(F)(F)F)nc2c(F)cc(-c3n[nH]c4ncc(-c5cccc(S(N)(=O)=O)c5)cc34)cc21 [Compound 15aa] | 36.8 | 48.3 |  |  |  |  |  | inhibition at 0.01 µM [4]: 14.1%
Cc1nc2c(F)cc(-c3c[nH]c4ncc(-c5ccc(S(N)(=O)=O)cc5)cc34)cc2n1C(C)C [Compound 15ab] |  |  |  | 70.9 | 72.9 | 90.3 | 3.6 | fold reduced activity against TBK1 compared to 15t (compared to 15t): 8 fold; inhibition at 0.0001 µM: 43.1%; inhibition at 0.001 µM: 60.1%
CN1CCN(Cc2ccc(-c3cnc4[nH]nc(-c5cccc(N)c5)c4c3)cc2)CC1 [Compound 15b] | 11 | 14.3 | 47.9 |  |  |  |  | 
CN1CCN(Cc2ccc(-c3cnc4[nH]nc(-c5ccc(N)cc5)c4c3)cc2)CC1 [Compound 15c] | 38.3 | 47.8 | 86.8 |  |  |  |  | 
CN1CCN(Cc2ccc(-c3cnc4[nH]nc(-c5ccc6[nH]cnc6c5)c4c3)cc2)CC1 [Compound 15d] |  |  |  | 18 | 52.5 | 84.1 | 131 | inhibition at 10 µM [8]: 102%
CC(C)n1cnc2ccc(-c3n[nH]c4ncc(-c5ccc(CN6CCN(C)CC6)cc5)cc34)cc21 [Compound 15e] |  |  |  | 14.3 | 62.8 | 104 | 75.3 | inhibition at 10 µM [8]: 108%
CN1CCN(Cc2ccc(-c3cnc4[nH]nc(-c5cccc6cnccc56)c4c3)cc2)CC1 [Compound 15f] |  |  |  |  | 28.7 | 81.4 | 290 | inhibition at 10 µM [8]: 101%
CC(C)n1cnc2ccc(-c3n[nH]c4ncc(-c5ccc(C(=O)N6CCN(C)CC6)cc5)cc34)cc21 [Compound 15g] |  |  |  | 29.9 | 91.7 | 108 | 26 | inhibition at 0.001 µM: 8.6%; inhibition at 10 µM [8]: 108%

SMILES | inhibition at 0.1 µM [1] [%] | inhibition at 1 µM [2] [%] | inhibition at 10 µM [3] [%] | inhibition at 0.01 µM [5] [%] | inhibition at 0.1 µM [6] [%] | inhibition at 1 µM [7] [%] | IC50 [nM] | further results
CC(C)n1cnc2ccc(-c3n[nH]c4ncc(-c5ccc(C(N)=O)cc5)cc34)cc21 [Compound 15h] |  |  |  | 29.1 | 75.6 | 104 | 58.9 | inhibition at 0.001 µM: 24%; inhibition at 10 µM [8]: 103%
CC(C)n1cnc2ccc(-c3n[nH]c4ncc(-c5ccc(S(N)(=O)=O)cc5)cc34)cc21 [Compound 15i] |  |  |  | 62.3 | 75.4 | 105 | 8.5 | fold lower TBK1 IC50 than compound 15e (compared with 15e): ~10 times; inhibition at 0.001 µM: 47.3%; inhibition at 10 µM [8]: 111%
CC(=O)Nc1cc(-c2cnc3[nH]nc(-c4ccc5ncn(C(C)C)c5c4)c3c2)ccn1 [Compound 15j] |  |  |  | 31.5 | 67.1 | 104 | 67.2 | inhibition at 0.001 µM: 14.2%; inhibition at 10 µM [8]: 103%
COC(=O)c1cccc(-c2cnc3[nH]nc(-c4ccc5ncn(C(C)C)c5c4)c3c2)c1 [Compound 15k] |  |  |  | 19.5 | 45 | 82.6 | 288 | inhibition at 10 µM [8]: 106%
NS(=O)(=O)c1ccc(-c2cnc3[nH]nc(-c4cnn(C5CCOCC5)c4)c3c2)cc1 [Compound 15l] | -7.2 | -0.6 | 21.9 |  |  |  |  | 
NS(=O)(=O)c1ccc(-c2cnc3[nH]nc(-c4ccc(N5CCOCC5)cc4)c3c2)cc1 [Compound 15m] | -8.9 | -6 | -11 |  |  |  |  | 
NS(=O)(=O)c1ccc(-c2cnc3[nH]nc(-c4cnn(CCN5CCOCC5)c4)c3c2)cc1 [Compound 15n] | -8.9 | -15 | -12.5 |  |  |  |  | 
NS(=O)(=O)c1ccc(-c2cnc3[nH]nc(-c4cnn(CCO)c4)c3c2)cc1 [Compound 15o] | -2.7 | -7.4 | 23.3 |  |  |  |  | 
Cc1nc2c(F)cc(-c3n[nH]c4ncc(-c5ccc(S(N)(=O)=O)cc5)cc34)cc2o1 [Compound 15p] | 30.6 | 37.1 | 41.1 |  |  |  |  | inhibition at 0.01 µM [4]: 32%
NS(=O)(=O)c1ccc(-c2cnc3[nH]nc(-c4cc(F)c5cn[nH]c5c4)c3c2)cc1 [Compound 15q] | 12.7 | 25.5 | 83.9 |  |  |  |  | inhibition at 0.01 µM [4]: 4.5%
Cc1nc2cc(-c3n[nH]c4ncc(-c5ccc(S(N)(=O)=O)cc5)cc34)cc(F)c2o1 [Compound 15r] | 10.8 | 5.7 | 56.8 |  |  |  |  | inhibition at 0.01 µM [4]: -2.6%
Cc1nc2ccc(-c3n[nH]c4ncc(-c5ccc(S(N)(=O)=O)cc5)cc34)cc2n1C(C)C [Compound 15s] |  |  |  | 68.6 | 76.9 | 97.2 | 6.2 | inhibition at 0.001 µM: 45.5%
Cc1nc2c(F)cc(-c3n[nH]c4ncc(-c5ccc(S(N)(=O)=O)cc5)cc34)cc2n1C(C)C [Compound 15t] |  |  |  | 78 | 79.5 | 99.1 | 0.8 | fold increase of TBK1 activity compared with compound 15i (compared with 15i): 10 times; inhibition at 0.0001 µM: 43.1%; inhibition at 0.001 µM: 61.6%
CCn1cnc2ccc(-c3n[nH]c4ncc(-c5ccc(S(N)(=O)=O)cc5)cc34)cc21 [Compound 15u] |  |  |  | 30 | 78.1 | 89.6 | 33.3 | inhibition at 0.0001 µM: 12.1%; inhibition at 0.001 µM: 25.1%
Cc1nc2c(F)cc(-c3n[nH]c4ncc(-c5ccc(S(N)(=O)=O)cc5)cc34)cc2n1C1CC1 [Compound 15v] |  |  |  | 49.7 | 70.3 | 87.4 | 31.2 | inhibition at 0.0001 µM: 37.7%; inhibition at 0.001 µM: 42.5%
CC(C)n1c(C(F)(F)F)nc2c(F)cc(-c3n[nH]c4ncc(-c5ccc(S(N)(=O)=O)cc5)cc34)cc21 [Compound 15w] | 27.1 |  |  |  |  |  |  | TBK1 inhibitory activity (in words): almost lost TBK1 activity; inhibition at 0.01 µM [4]: 10.7%
Cc1nc2c(F)cc(-c3n[nH]c4ncc(-c5ccc(CN6CCN(C)CC6)cc5)cc34)cc2n1C(C)C [Compound 15x] |  |  |  | 34.1 | 80.5 | 75.8 | 22 | inhibition at 0.001 µM: 18.6%
